Assay [1] deals with T1, High affinity choline transporter 1 (Homo sapiens, UniProt Q9GZV3).
T1 sequence (Q9GZV3 whole entry): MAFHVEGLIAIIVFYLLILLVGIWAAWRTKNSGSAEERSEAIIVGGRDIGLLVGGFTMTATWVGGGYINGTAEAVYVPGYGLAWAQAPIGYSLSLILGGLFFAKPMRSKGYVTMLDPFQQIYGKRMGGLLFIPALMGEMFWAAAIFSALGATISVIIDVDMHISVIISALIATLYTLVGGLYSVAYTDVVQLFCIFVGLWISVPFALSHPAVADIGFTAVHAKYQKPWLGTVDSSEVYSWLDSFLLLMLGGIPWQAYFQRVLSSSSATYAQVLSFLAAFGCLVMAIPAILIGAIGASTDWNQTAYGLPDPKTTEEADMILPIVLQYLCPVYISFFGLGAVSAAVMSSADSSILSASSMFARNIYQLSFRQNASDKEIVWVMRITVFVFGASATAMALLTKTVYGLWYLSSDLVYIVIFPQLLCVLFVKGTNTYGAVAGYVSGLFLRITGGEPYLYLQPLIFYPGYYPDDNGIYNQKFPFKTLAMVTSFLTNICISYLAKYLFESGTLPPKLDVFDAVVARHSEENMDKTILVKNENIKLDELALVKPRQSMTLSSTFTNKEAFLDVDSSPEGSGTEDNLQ
As to the kind of experiment: human choline transporter blockers, potency – cell-based, 5-point CRC, membrane potential dye, dose response (AID 504840). Type of assay: functional.

The target of assay [2] is T2, Type-1 angiotensin II receptor (Homo sapiens, UniProt P30556).
T2 sequence (P30556 whole entry): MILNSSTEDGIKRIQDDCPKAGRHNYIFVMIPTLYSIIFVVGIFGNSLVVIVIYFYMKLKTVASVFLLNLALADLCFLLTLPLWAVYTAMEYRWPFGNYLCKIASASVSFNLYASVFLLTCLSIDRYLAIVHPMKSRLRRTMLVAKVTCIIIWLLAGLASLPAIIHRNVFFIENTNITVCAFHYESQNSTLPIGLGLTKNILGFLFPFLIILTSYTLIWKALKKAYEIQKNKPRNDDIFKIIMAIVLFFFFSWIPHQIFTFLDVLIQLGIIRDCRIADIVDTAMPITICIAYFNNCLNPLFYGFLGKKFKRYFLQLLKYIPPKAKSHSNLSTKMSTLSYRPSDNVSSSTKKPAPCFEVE
Briefly: antagonism of angiotensin II type 1 receptor – cell-based, uHTS hits, selectivity assay for APJ receptor antagonist project, dose response (AID 463214).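 Note: antagonist potency against angiotensin II stimulated AT1 response.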 Type of assay: functional.

For assay [3], the target named is T3, Zinc finger protein mex-5 (Caenorhabditis elegans, UniProt Q9XUB2).
T3 sequence (Q9XUB2 whole entry): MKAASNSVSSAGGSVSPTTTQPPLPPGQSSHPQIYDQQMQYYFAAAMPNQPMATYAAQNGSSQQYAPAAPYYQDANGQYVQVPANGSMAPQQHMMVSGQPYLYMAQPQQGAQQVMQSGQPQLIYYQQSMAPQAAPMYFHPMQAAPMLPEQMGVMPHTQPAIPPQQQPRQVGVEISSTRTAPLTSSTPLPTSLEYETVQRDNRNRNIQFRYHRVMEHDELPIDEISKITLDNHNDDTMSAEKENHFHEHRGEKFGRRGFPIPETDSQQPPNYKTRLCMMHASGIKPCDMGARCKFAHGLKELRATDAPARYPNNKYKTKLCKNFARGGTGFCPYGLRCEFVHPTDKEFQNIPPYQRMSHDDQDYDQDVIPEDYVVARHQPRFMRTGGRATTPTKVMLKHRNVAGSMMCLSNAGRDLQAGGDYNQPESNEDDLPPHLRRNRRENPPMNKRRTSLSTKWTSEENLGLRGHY
Briefly: potency of MEX-5 RNA-binding blockers – biochemical, C. elegans, fluorescence polarization, dose response (AID 1960).

Assay [4] deals with Beta-galactosidase (Escherichia coli, UniProt Q8VNN2). As to the kind of experiment: PubChem AID 485352. Type of assay: functional.
Chain of Beta-galactosidase (Q8VNN2 whole entry): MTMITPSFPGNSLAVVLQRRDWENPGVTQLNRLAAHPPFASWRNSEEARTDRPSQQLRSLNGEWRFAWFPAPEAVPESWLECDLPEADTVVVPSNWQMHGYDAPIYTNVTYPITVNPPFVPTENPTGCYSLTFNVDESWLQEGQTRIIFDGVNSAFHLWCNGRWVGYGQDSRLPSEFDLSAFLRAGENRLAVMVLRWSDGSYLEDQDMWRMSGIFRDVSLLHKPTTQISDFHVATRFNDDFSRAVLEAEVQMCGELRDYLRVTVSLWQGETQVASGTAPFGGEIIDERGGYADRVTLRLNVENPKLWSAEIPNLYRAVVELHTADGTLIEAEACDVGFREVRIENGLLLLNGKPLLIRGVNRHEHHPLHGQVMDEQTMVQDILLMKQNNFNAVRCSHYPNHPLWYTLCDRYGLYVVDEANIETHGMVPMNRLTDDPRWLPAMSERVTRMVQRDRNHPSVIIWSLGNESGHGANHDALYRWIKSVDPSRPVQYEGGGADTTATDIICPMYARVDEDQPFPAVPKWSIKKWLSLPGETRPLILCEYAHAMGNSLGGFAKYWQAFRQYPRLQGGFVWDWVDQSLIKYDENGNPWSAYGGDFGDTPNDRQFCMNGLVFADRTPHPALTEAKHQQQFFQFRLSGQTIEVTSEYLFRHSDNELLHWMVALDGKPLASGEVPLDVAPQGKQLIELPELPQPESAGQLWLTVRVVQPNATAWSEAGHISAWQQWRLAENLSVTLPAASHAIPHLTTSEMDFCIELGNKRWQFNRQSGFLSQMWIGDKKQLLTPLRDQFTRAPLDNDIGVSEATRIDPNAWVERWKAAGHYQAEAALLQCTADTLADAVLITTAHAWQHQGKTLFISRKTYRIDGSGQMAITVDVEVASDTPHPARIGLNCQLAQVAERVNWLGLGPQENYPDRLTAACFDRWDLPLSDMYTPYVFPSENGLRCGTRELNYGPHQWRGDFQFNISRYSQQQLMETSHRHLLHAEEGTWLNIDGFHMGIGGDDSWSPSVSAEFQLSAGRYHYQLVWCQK
The target in assay [5] is T4, RNA-binding protein pos-1 (Caenorhabditis elegans, UniProt G5EF15).
T4 sequence (G5EF15 whole entry): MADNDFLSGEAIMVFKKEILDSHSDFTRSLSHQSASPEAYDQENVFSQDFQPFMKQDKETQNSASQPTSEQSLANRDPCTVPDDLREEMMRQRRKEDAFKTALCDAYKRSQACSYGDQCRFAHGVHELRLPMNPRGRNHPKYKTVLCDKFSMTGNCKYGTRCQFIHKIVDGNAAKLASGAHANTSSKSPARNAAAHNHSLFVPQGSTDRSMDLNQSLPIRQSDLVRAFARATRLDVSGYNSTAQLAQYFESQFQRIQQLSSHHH
As to the kind of experiment: disruptors of C. elegans POS-1 RNA interaction – biochemical, fluorescence polarization, dose response (AID 1964).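 Note: purified POS-1 fused to maltose binding protein made in E. coli; potency of compounds blocking POS-1 binding to fluorescent RNA.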 A general note: Fluorescence polarisation rises when a labelled molecule tumbles more slowly, as on binding a larger partner.

Assay [6] is described as follows: Trypanosoma cruzi growth suppression in host cells – NIH3T3 host cells, beta-gal luminescence, confirmation (AID 2044).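 Note: intracellular parasites grown in NIH/3T3 mouse fibroblasts as host cells; luminescent beta-galactosidase reporter signal from transgenic T. cruzi replicating inside host cells; inhibitors lower the luminescence signal.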 In kind it is functional, cell-based.
In assay [7] the target is Glucose-6-phosphate 1-dehydrogenase (Homo sapiens, UniProt P11413). As to the kind of experiment: inhibition of Homo sapiens G6PD, dose series – biochemical, fluorescence, selectivity assay for P. falciparum G6PD inhibitor project, dose response (AID 504792). Type of assay: functional.
Chain of Glucose-6-phosphate 1-dehydrogenase (P11413 whole entry): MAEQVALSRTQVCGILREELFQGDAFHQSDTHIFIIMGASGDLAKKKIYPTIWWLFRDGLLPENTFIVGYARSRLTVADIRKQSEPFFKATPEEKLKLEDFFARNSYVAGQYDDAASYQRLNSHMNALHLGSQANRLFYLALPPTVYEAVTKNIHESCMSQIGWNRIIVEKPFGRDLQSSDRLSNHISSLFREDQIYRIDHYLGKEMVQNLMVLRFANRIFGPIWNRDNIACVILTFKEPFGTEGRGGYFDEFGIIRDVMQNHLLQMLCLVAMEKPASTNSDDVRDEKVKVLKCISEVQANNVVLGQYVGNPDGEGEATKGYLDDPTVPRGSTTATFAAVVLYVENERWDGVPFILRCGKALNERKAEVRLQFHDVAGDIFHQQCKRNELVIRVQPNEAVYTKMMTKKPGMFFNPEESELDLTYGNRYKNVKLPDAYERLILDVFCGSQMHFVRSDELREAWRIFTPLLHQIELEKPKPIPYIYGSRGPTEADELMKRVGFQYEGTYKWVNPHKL
Assay [8] can be described thus: NIH3T3 cell viability loss – ATP luminescence, mouse fibroblasts, counter-screen, dose response (AID 2010).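 Note: cells exposed to compound for about 90 hours before reading.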 In kind it is functional, cell-based. A general note: A counterscreen serves to expose hits that act by an unwanted route or on another target.
Assay [9] deals with Dual specificity tyrosine-phosphorylation-regulated kinase 1A (Rattus norvegicus, UniProt Q63470). Type of assay: biochemical, Homo sapiens.
Assay [10] has as its target T5, Polyadenylate-binding protein 1 (Homo sapiens, UniProt P11940). As to the kind of experiment: MLLE domain peptide-binding blockers, IC50 – biochemical, fluorescence polarization, FITC-PAM2 peptide, dose response (AID 602259). Type of assay: functional. Conditions: read-out: IC50_Mean.
In assay [11] the target is T5, Polyadenylate-binding protein 1. As to the kind of experiment: MLLE binding blockers, Cy5 peptide tracer – biochemical, fluorescence polarization, Cy5-PAM2 peptide, secondary, miRNA deadenylation inhibitor project, dose response (AID 602260). Type of assay: functional. To be noted: read-out: IC50_Mean.
For assay [12], the target named is Peroxisome proliferator-activated receptor gamma/Nuclear receptor coactivator 3 (Homo sapiens, UniProt P37231). As to the kind of experiment: TR-FRET dose response biochemical High Throughput Screening assay for agonists of the steroid receptor coactivator 3 (SRC-3) recruitment by the peroxisome proliferator-activated receptor gamma (PPAR gamma): non-selective agonists. [Related pubchem assays: 1301 (Confirmation screen.), 1048 (Primary screen.)]. In kind it is functional. A general note: TR-FRET usually uses a lanthanide donor and a delayed reading to cut background.

Assay [13] concerns the target Peroxisome proliferator-activated receptor gamma/Nuclear receptor coactivator 2 (Homo sapiens, UniProt P37231). Briefly: TR-FRET dose response biochemical High Throughput Screening assay for agonists of the steroid receptor coactivator 2 (SRC-2) recruitment by the peroxisome proliferator-activated receptor gamma (PPAR gamma): non-selective agonists. [Related pubchem assays: 1297, 1032 ]. Type of assay: functional.

Assay [14] has as its target Peroxisome proliferator-activated receptor gamma/Nuclear receptor coactivator 1 (Homo sapiens, UniProt P37231). Briefly: TR-FRET dose response biochemical High Throughput Screening assay for agonists of the steroid receptor coactivator 1 (SRC-1) recruitment by the peroxisome proliferator-activated receptor gamma (PPAR gamma): non-selective agonists. [Related pubchem assays (depositor defined):AID1300, AID1808, AID504735, AID631]. Type of assay: protein assay.

Assay [15] has as its system Vero. As to the kind of experiment: viability of Vero cells under compound – cytotoxicity control for flavivirus capping enzyme inhibitors (AID 588742). In kind it is functional. To be noted: Chlorocebus sabaeus.
The target of assay [16] is Genome polyprotein (dengue virus type 2, UniProt P29990). As to the kind of experiment: flavivirus cap methylation enzyme inhibition – biochemical, confirmation dose response, primary screen (AID 588689). Type of assay: functional.
Chain of Genome polyprotein (P29990 2492-3391 limits assumed): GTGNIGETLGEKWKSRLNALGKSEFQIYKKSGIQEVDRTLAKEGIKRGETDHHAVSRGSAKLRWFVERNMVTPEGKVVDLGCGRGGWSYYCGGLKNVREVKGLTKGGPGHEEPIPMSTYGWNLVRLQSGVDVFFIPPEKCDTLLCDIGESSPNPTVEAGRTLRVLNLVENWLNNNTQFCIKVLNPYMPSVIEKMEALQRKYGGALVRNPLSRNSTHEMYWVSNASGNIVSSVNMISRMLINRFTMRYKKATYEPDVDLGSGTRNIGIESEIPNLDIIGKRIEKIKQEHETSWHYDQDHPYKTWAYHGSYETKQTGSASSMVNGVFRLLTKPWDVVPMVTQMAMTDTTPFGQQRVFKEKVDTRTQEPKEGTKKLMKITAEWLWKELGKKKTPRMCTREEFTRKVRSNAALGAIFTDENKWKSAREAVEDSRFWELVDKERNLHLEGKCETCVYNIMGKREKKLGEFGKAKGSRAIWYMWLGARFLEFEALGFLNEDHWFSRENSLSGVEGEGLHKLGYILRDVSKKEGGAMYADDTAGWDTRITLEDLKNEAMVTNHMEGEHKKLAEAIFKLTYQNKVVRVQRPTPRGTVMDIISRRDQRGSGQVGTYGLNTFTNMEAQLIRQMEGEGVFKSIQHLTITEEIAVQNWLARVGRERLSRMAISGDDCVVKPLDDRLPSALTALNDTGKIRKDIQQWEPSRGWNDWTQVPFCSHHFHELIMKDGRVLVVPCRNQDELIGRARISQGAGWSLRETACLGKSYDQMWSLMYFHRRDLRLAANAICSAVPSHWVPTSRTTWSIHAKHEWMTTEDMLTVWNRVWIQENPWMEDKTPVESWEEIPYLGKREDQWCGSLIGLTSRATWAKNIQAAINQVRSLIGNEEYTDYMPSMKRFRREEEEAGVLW

Activity calls are given as the source filed them.

This is an account of results in ChEMBL document CHEMBL1201862, “PubChem BioAssay data set” (2004).

T5 sequence (P11940 whole entry, the tested form may be a part): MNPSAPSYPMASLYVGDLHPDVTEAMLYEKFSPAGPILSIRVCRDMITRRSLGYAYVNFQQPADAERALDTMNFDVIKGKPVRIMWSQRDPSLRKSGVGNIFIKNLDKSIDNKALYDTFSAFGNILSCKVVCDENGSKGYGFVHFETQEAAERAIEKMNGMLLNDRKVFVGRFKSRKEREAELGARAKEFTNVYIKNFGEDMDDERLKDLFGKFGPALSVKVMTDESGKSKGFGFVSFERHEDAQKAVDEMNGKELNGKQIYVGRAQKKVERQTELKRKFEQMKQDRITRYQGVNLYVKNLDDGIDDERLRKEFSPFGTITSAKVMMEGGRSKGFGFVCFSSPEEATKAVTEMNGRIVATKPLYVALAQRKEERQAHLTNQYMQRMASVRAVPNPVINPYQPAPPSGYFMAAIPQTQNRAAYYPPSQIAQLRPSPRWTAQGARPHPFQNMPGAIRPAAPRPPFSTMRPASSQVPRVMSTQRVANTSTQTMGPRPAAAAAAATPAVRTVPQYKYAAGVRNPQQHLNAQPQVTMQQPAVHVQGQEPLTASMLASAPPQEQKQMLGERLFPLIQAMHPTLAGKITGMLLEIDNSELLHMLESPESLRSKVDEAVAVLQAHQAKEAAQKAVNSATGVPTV
Chain of Peroxisome proliferator-activated receptor gamma/Nuclear receptor coactivator 2 (P37231 whole entry): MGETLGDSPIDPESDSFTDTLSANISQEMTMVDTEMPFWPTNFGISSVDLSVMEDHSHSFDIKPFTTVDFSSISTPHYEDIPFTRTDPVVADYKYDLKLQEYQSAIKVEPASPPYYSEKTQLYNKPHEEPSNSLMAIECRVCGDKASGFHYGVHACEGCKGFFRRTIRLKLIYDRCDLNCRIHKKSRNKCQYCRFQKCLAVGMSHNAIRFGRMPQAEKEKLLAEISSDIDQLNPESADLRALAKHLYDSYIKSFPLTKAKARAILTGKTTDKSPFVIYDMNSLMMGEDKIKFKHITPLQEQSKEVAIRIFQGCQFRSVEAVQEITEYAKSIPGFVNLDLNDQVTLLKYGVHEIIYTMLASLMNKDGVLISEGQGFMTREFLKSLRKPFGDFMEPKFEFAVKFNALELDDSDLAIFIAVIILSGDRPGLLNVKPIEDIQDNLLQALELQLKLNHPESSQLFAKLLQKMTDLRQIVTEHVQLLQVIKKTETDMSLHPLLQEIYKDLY
Chain of Peroxisome proliferator-activated receptor gamma/Nuclear receptor coactivator 2 (Q15596 whole entry, further chain): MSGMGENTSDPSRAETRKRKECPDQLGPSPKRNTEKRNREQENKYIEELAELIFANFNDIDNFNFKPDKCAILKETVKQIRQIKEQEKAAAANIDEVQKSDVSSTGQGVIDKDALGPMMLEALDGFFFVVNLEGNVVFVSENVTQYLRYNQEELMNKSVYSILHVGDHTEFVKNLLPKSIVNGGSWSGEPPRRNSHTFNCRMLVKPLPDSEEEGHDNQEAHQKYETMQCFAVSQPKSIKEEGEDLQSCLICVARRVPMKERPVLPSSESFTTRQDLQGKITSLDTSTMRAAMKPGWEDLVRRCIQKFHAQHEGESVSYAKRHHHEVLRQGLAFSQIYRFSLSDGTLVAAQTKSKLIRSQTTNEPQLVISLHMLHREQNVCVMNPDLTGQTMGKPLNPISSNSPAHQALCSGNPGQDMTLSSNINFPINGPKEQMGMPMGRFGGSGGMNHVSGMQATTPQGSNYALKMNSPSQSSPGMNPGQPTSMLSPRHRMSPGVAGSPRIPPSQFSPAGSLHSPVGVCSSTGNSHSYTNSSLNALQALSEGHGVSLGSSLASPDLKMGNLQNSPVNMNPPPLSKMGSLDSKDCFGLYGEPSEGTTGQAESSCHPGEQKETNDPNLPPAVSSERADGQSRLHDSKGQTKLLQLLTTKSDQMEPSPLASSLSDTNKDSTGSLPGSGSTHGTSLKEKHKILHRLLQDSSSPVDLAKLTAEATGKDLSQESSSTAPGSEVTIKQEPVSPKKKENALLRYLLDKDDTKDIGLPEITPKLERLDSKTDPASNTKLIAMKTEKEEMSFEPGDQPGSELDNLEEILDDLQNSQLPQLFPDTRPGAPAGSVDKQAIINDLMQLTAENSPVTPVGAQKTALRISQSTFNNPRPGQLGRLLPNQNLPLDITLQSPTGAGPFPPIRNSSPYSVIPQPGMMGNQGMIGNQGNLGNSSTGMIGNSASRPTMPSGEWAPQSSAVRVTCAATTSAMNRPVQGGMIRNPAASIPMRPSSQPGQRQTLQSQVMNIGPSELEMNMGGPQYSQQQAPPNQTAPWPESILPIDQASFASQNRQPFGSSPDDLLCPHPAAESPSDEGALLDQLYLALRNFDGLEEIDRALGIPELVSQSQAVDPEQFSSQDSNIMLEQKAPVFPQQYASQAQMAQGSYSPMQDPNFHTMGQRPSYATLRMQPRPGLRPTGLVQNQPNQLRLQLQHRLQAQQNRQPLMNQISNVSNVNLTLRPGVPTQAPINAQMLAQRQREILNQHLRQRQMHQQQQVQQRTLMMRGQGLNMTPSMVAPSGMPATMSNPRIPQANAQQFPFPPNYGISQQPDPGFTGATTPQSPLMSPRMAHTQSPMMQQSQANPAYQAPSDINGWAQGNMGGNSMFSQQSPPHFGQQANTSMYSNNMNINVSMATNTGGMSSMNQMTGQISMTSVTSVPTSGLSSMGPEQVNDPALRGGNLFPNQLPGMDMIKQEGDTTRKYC

Regarding `C[C@H](NC(=O)OC(C)(C)C)c1nnc(SCC(=O)c2ccc(Cl)cc2)o1`, the IC50 in [1] is 1.91 µM (active).

Turning to `CC(NC(=O)COc1ccccc1)C(=O)OCC(=O)c1cc2ccccc2o1` (stereo unspecified), in assay [2], the IC50 was 13.8 µM (active). Further, the figures for the EC50 in [3], in assay [4] and in [5] were > 300 µM (not active), > 40 µM (inactive) and > 300 µM (not active), respectively.

Regarding `CC1=C(n2nnc([N+](=O)[O-])n2)C(c2cccnc2)C(C#N)=C(N)O1` (stereo unspecified), the EC50 in assay [6] was 0.209 µM (active); in [8], > 60 µM (inconclusive). For the same compound, the IC50 in assay [7] was 65 µM (inactive).

As to `CC(=O)Nc1ccc(/C=C/c2nc3ccccc3o2)cc1`, in [9], the concentration at half-maximal activity (AC50) is 1.2 µM (active).

Turning to `O=C(C[n+]1ccc(-c2cc(C(=O)Nc3cccc(C(F)(F)F)c3)c3ccccc3n2)cc1)c1cccc([N+](=O)[O-])c1`, in assay [2], the IC50 is given as 26 µM (not active). Moreover, the EC50 in assay [4] is > 40 µM (inactive).

For `COc1ccc(-n2c(=S)[nH]c3cc(C(=O)NCCCN4CCOCC4)ccc3c2=O)cc1`, the IC50 in assay [1] is 10.3 µM (active).

`NC(=S)c1ccc(C(N)=S)o1`: the AC50 in [9] is 14.3 µM (active). Also, the IC50 in assay [10] and in assay [11] was > 66 µM (inactive) each time.

In the case of `CCC(OC(=O)c1cc2sccc2n1C)C(=O)NCc1ccco1` (stereo unspecified), the results for the concentration giving a half-maximal response (EC50) in assay [12], in assay [13] and in assay [14] were > 79.4 µM (not active), > 26.5 µM (not active) and > 79.4 µM (inactive), respectively.

`O=c1cc(-c2ccccc2)oc2cc(O)c(O)c(O)c12` [BAICALEIN]: the AC50 in assay [9] is 14.5 µM (active). The half-maximal cytotoxic concentration (CC50) in assay [15] is > 40 µM (active). Moreover, the IC50 in assay [16] is 35.1 µM (active).

In general, EC50 refers to the concentration that produces a half-maximal response. By AC50 is commonly meant the midpoint of the concentration-response curve, whichever way the signal moves. The CC50 is the concentration that lowers cell viability or growth by half.
